{"source": "ChEMBL document CHEMBL5465560", "about": "“Selectivity Literature for EUbOPEN Chemogenomic Library” (2024)", "key": {"[1]": {"molecular_target": "T1, Rhodopsin kinase GRK7 (Homo sapiens) (UniProt Q8WTQ7)", "T1 sequence (whole entry)": "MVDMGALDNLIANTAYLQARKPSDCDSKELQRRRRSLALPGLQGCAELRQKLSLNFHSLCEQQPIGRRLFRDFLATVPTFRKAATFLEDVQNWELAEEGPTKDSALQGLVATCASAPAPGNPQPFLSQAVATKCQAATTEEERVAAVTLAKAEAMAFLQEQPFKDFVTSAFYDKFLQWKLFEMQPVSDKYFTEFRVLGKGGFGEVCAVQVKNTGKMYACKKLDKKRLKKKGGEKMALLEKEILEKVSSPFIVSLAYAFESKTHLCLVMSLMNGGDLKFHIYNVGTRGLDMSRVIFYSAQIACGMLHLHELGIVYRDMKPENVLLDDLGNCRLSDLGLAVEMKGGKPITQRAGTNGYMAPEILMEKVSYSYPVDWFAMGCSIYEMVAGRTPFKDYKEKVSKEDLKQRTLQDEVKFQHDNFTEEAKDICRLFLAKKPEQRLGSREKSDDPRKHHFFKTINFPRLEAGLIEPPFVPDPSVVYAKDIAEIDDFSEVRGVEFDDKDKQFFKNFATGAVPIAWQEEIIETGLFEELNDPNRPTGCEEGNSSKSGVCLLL", "assay": "Selectivity interaction (ProQinase) EUB0000171b GRK7"}, "[2]": {"molecular_target": "L-type calcium channel Cav1.2 (CACNA1C) (Homo sapiens, UniProt Q13936)", "sequence (Q13936 whole entry)": "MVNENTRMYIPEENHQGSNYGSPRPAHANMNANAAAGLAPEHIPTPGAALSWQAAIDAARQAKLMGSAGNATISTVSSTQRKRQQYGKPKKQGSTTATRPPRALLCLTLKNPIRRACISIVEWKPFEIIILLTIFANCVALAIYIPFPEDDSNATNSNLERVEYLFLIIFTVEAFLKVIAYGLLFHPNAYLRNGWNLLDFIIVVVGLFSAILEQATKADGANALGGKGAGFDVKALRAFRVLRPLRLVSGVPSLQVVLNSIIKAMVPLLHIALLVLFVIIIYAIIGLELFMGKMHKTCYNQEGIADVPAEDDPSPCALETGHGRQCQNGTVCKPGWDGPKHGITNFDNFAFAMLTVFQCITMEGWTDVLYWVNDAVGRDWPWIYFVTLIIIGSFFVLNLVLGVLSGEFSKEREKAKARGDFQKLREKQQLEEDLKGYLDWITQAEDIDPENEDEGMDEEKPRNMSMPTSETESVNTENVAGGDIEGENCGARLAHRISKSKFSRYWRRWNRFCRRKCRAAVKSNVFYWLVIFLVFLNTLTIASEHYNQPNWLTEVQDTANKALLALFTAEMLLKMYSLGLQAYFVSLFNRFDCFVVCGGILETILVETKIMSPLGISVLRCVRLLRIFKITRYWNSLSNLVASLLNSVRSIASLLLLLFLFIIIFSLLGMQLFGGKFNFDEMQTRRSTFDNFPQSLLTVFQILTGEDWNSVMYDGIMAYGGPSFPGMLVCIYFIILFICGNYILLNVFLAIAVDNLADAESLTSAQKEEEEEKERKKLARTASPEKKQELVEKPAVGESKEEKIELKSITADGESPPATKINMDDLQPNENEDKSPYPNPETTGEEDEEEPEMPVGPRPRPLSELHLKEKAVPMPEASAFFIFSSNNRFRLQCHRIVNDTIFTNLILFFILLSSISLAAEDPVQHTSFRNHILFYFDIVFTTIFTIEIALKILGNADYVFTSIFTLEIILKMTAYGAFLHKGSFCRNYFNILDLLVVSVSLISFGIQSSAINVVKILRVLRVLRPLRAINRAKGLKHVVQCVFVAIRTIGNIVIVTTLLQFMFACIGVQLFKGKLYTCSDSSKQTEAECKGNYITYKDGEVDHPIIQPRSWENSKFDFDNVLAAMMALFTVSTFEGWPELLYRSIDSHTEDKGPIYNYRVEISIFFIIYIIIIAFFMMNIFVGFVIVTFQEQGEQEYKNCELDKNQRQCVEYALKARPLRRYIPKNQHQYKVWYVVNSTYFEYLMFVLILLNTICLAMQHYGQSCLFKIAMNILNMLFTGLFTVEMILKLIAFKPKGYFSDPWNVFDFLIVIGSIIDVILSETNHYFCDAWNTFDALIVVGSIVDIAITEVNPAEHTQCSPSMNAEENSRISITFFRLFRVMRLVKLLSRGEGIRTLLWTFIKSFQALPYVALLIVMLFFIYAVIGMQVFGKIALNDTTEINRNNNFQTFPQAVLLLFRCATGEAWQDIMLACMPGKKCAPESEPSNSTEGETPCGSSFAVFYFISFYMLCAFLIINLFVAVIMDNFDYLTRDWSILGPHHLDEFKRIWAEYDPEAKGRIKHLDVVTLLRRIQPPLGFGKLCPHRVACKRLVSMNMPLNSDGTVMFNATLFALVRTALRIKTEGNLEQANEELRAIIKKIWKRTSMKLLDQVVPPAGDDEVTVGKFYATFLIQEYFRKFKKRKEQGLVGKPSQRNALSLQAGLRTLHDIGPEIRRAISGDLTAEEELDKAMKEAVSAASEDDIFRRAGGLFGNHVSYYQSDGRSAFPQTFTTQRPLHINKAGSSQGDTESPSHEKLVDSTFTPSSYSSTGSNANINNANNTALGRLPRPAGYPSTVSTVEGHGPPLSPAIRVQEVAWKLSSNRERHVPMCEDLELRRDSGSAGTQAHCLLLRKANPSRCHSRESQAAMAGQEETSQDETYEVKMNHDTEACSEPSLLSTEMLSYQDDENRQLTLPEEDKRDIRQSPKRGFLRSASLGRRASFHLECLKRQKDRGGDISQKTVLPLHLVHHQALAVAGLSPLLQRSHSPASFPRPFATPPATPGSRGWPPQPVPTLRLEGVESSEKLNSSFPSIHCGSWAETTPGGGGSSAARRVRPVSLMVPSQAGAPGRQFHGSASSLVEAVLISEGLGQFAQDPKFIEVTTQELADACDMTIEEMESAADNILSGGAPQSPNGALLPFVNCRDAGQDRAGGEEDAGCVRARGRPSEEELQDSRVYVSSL", "assay": "Selectivity interaction (Panel of kinases, GPCRs, ion channels and transporters (enzymatic assay)) EUB0000223bCl CACNA1C"}, "[3]": {"molecular_target": "T2, MAP/microtubule affinity-regulating kinase 4 (Homo sapiens) (UniProt Q96L34)", "T2 sequence (whole entry)": "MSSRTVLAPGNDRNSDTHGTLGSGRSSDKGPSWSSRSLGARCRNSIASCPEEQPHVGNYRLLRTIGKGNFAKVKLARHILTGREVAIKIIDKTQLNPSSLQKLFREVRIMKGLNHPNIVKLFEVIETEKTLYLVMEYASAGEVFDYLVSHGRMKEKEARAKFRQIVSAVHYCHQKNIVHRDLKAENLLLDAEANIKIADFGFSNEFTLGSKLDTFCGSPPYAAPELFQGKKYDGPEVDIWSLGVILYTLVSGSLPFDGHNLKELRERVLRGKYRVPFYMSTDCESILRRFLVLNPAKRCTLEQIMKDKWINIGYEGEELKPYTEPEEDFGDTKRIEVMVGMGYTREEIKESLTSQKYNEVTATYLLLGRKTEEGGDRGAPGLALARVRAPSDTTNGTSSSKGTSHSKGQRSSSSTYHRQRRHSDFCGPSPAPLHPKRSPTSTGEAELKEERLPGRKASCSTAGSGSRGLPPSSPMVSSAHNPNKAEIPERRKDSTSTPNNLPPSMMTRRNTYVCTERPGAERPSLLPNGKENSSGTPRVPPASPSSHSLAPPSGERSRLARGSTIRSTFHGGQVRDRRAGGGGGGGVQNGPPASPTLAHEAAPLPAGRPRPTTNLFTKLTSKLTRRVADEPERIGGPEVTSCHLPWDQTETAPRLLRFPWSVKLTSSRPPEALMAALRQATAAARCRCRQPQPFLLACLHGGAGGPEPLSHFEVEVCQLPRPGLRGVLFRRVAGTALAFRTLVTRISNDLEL", "assay": "Selectivity interaction (ActivX KiNativ screen (kinase selectivity in THP-1 cell lysates)) EUB0000639a MARK4", "type": "subcellular", "settings": "lysate"}, "[4]": {"system": "Epidermal growth factor receptor (Homo sapiens), P00533 [UNDEFINED MUTATION]", "sequence (P00533 whole entry, looked up, change not shown)": "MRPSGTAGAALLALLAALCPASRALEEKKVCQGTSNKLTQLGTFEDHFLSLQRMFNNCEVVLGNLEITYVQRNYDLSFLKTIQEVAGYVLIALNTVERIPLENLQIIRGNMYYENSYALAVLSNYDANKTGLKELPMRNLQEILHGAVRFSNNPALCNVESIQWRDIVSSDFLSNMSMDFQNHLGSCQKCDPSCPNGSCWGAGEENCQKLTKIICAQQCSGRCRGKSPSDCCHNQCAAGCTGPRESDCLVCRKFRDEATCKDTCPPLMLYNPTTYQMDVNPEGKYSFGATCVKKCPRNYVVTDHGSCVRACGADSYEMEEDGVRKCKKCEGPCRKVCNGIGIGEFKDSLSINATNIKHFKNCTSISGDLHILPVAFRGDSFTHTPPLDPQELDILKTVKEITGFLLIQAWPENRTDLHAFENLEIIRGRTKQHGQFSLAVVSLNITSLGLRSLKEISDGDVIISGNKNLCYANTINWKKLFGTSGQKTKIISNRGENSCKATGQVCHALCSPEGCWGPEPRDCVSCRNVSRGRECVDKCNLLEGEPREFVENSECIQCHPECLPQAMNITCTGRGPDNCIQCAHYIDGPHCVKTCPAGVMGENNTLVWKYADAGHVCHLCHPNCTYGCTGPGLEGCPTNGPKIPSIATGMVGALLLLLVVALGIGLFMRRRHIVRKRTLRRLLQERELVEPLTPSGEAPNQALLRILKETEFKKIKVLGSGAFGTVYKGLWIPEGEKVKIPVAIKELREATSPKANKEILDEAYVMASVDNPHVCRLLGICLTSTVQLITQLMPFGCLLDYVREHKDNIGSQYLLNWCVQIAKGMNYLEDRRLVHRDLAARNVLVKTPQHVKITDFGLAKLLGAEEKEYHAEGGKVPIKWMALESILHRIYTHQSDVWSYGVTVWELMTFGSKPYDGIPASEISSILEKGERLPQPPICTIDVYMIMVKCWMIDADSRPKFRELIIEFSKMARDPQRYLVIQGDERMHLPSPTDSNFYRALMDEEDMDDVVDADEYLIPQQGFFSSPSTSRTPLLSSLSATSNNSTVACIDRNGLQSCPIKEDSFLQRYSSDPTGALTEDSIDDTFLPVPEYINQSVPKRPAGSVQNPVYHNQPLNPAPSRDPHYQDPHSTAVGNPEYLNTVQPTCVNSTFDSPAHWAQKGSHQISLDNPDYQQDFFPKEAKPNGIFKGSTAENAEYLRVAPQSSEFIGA", "assay": "Selectivity interaction (KinomeScan (DiscoverX)) EUB0000655a EGFR", "settings": "at 10 µM"}, "[5]": {"molecular_target": "T3, Tyrosine-protein kinase Tec (Homo sapiens) (UniProt P42680)", "T3 sequence (whole entry)": "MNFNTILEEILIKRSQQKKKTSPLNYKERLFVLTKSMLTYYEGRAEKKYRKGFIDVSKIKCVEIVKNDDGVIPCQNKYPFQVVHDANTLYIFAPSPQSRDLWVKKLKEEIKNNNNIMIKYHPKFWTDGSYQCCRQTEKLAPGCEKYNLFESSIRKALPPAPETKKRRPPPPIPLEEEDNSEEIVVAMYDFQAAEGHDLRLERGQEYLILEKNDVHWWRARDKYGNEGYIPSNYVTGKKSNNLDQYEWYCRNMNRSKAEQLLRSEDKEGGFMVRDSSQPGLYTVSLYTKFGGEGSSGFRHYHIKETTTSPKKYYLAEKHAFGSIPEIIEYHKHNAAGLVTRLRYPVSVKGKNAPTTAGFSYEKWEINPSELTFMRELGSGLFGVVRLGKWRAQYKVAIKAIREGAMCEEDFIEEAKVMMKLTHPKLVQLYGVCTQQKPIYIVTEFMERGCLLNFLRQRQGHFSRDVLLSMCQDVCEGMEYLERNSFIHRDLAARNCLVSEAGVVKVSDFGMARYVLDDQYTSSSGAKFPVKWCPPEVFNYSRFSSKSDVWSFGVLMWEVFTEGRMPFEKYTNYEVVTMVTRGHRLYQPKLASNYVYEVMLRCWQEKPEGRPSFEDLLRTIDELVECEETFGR", "settings": "at 10 µM"}}, "data": [{"smiles": "C=CC(=O)Nc1cccc(C(=O)Nc2ccc(Nc3cc(-c4[nH]c(SC)nc4C)ccn3)cc2)c1", "values": [{"measurement": "% of control", "setting": "[1]; at 1 µM", "value": 100, "unit": "%"}, {"measurement": "% of control", "setting": "[1]; at 5 µM", "value": 99, "unit": "%"}]}, {"smiles": "COc1cc(C(=O)N2CC[C@@H](O)[C@@H](N)C2)cc2nc(-c3cc4ccccc4n3CC3CC3)n(C)c12", "values": [{"measurement": "XC50", "setting": "[2]", "value": 3.98, "unit": "µM"}]}, {"smiles": "CC[C@@H]1[C@H](F)C(=O)N[C@@H]1COc1nccc2cc(C(N)=O)c(OC)cc12", "note": "[ZIMLOVISERTIB]", "values": [{"measurement": "% of inhibition", "setting": "[3]; at 0.01 µM", "value": 10.4, "unit": "%"}, {"measurement": "% of inhibition", "setting": "[3]; at 0.04 µM", "value": 9.1, "unit": "%"}, {"measurement": "% of inhibition", "setting": "[3]; at 0.2 µM", "value": 19.8, "unit": "%"}, {"measurement": "% of inhibition", "setting": "[3]; at 1 µM", "value": 21.6, "unit": "%"}, {"measurement": "% of inhibition", "setting": "[3]; at 5 µM", "value": 36.9, "unit": "%"}]}, {"smiles": "CN(C)CCOc1ccc(-c2nc(-c3ccncc3)c(-c3ccc4c(c3)CC/C4=N\\O)[nH]2)cc1", "values": [{"measurement": "% of control", "setting": "[4]", "value": 92, "unit": "%"}]}, {"smiles": "CCN(CC)CCCCNc1ncc2cc(-c3cc(OC)cc(OC)c3)c(NC(=O)NC(C)(C)C)nc2n1", "values": [{"measurement": "% of control", "setting": "[5]", "value": 100, "unit": "%"}]}]}
